Laboratory results: US20170119806A1, “[…] LACTONE DERIVATIVES AND METHODS OF MAKING AND USING THEREOF” (OHIO STATE INNOVATION FOUNDATION, priority 2014, published 2017)
Entries after “also recorded” stand apart in the source; their conditions may differ.

Key:
NF-κB p65 = test: Immunoblotting of p65 and p-p65 in NK cells; type: cell-based, human; details: 5 and 10 μM PL-C, 18 h
Description: (A) Purified primary human NK cells were treated with 5 and 10 μM PL-C for 18 h. The cells were harvested and lysed for immunoblotting using p65 and p-p65 Abs. β-Actin immunoblotting was included as the internal control. Data shown are for treatment with PL-C alone (top panel) or in combination with IL-12 (10 ng/mL) (middle panel) or IL-15 (100 ng/mL) (bottom panel) and are the representative plots of four donors with similar results. Numbers under each lane represent quantification of p-p65 or p65 via densitometry, after normalizing to β-actin. (B) NKL cells were treated, and data are presented as described in (A). Data from one of three independent experiments with similar results are shown. (C) Purified primary human NK (left panel) or NKL cells (right panel) were cotreated with 10 μM PL-C and IL-12 (10 ng/mL) in the presence or absence of the NF-κB inhibitor TPCK (10 μM) for 18 h. Supernatants were assayed for IFN-γ secretion by ELISA (top panel), and cells were harvested and lysed for immunoblotting of p-p65 (bottom panel). Representative data from one of three donors with the similar data (left panel) and the summary of three independent experiments with similar results (right panel) are shown. **p<0.01. Error bars represent SD.
Immunoblotting. Immunoblotting was performed as described previously (Yu J et al. Immunity 2006, 24, 575-590; Yu J et al. Blood 2010, 115, 274-281). […]

topo IIα = topo IIα (Homo sapiens, UniProt P11388); test: Topoisomerase II assay (DNA cleavage/relaxation); type: biochemical; details: 100 μM test compound
From the text: The formation of linear DNA was detected by separating the SDS-treated reaction products using ethidium bromide gel electrophoresis and quantified by accounting for the relationship between fluorescence and relative band intensity for open circular (OC), linear (LNR), supercoiled (SC), and relaxed (RLX) configurations of DNA.
Topoisomerase II Assay. […] The formation of linear DNA was detected by separating the SDS-treated reaction products using ethidium bromide gel electrophoresis by a modification of a previously described procedure (Hasinoff B B et al. Mol. Pharmacol. 2005, 67, 937-947). In this system, topo II-mediated catalytic conversion of supercoiled pBR322 DNA to the “relaxed” form of plasmic' DNA can also be observed. A 20 μL cleavage assay reaction mixture contained 250 ng topo IIα protein, 160 ng pBR322 plasmid DNA (NEB, Ipswich, Mass.), 1.0 mM ATP in assay buffer (10 mM Tris-HCl (pH 7.5), 50 mM KCl, 50 mM NaCl, 0.1 mM EDTA, 5 mM MgCl2, 2.5% glycerol), and 100 μM of test compounds or DMSO solvent, as indicated. Assay buffer (17 μL) and test compound/DMSO (1 μL) were mixed and allowed to sit at room temperature for 30 min after which 2 μL of topo IIα was added to initiate the reaction. Tubes were incubated at 37° C. for 15 min, and then quenched with 1% (v/v) SDS/10 mM disodium EDTA/200 mM NaCl. The mixture was treated subsequently with 0.77 mg/mL proteinase K (Sigma) at 55° C. for 60 min to digest the protein, and DNA bands were separated by electrophoresis (18 h at 2 V/cm) on an agarose gel (1.3% w/v) containing 0.7 μg/mL ethidium bromide in TAE buffer pH 8.0 (40 mM Tris base, 0.114% (v/v) glacial acetic acid, 2 mM EDTA). The DNA in the gel was imaged by its fluorescence on a Chemi-Doc XRS+ imager (Bio-Rad, Hercules, Calif.). Linear DNA was quantified by accounting for the relationship between fluorescence and relative band intensity for open circular (QC), linear (LNR), supercoiled (SC), and RLX (relaxed) configurations of DNA (Projan S J et al. Plasmid 1983, 9, 182-190), then calculating % of LNR from the total DNA content in each lane.

Sequence of topo IIα (P11388 whole entry): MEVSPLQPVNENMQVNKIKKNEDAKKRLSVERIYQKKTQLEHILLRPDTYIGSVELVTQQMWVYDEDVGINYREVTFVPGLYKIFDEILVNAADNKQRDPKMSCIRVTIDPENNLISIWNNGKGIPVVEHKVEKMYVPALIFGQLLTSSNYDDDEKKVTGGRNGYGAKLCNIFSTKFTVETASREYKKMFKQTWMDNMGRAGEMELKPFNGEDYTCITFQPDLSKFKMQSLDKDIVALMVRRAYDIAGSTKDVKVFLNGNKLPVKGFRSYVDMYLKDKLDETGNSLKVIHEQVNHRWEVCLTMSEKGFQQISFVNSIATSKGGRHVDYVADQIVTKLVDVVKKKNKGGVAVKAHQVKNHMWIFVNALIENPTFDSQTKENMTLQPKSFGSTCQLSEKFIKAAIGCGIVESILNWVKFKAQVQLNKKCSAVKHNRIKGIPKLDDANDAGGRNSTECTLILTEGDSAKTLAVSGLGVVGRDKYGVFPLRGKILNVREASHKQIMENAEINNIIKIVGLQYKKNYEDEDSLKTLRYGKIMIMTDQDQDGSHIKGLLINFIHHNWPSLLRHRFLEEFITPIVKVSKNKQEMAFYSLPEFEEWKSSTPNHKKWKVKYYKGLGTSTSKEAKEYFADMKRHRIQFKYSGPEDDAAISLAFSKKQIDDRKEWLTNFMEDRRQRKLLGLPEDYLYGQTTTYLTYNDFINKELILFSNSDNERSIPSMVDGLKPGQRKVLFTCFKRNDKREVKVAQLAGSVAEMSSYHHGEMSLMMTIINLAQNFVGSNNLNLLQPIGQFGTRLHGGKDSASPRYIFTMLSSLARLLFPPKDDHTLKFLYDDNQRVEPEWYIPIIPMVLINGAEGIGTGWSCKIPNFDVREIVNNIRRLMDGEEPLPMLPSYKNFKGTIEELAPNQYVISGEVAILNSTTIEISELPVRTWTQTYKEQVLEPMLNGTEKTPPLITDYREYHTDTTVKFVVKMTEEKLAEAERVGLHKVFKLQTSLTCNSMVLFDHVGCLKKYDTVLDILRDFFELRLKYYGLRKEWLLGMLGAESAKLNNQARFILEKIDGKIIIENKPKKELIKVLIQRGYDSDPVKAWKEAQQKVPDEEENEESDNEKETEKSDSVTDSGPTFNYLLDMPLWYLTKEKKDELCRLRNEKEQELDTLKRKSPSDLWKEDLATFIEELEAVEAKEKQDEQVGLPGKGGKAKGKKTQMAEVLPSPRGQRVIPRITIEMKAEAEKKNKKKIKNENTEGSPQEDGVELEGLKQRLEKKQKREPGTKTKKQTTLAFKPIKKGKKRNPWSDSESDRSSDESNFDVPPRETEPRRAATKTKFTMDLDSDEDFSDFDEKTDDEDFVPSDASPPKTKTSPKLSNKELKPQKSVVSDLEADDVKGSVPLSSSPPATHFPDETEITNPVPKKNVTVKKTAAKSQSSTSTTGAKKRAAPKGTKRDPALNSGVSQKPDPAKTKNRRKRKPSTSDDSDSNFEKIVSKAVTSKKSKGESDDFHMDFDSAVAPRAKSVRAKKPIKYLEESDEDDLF

`COc1cc2c(OC3OCC(O)C(O)C3O)c3c(c(-c4ccc5c(c4)OCO5)c2cc1OC)C(=O)OC3` (centres unmarked) [Compound 4, Phyllanthusmin C] was tested, and the “NF-κB p65 phosphorylation in primary NK and NKL cells” value (NF-κB p65) was “increased” and the “topo IIα inhibition (in words)” value (topo IIα) was “not topo Ha inhibitors; also recorded: not topo IIα inhibitors”.
